Reference: article PMC12339163, “Combining Plant Bioactives With Antibiotics for Enhanced Antibiofilm Activity Against Uropathogenic Staphylococcus spp. and Cytotoxicity Evaluation” (Advances in Pharmacological and Pharmaceutical Sciences, 2025)
≈ marks a conversion by molar mass, not a printed value. Where “and” joins values, the source holds several entries; their conditions need not be identical. Equal entries are not always repeated. Where two headings read alike, the source gives them in different places.

How the values were obtained:
S. epidermidis = assay: MIC and MBC, broth microdilution; assay type: cell-based, Staphylococcus epidermidis; conditions: Staphylococcus epidermidis, geometric mean, S. epidermidis (n = 3); for MBC: read-out: MBC; for MIC: read-out: MIC
Description: (§1) Seven clinical isolates of Staphylococcus spp. including 2 S. aureus, 3 S. saprophyticus, and 2 S. epidermidis were used. They were isolated from urine samples in our previous study. Two reference strains (S. aureus ATCC1026 and S. epidermidis ATCC35984) obtained from the American Type Culture Collection were also included. They were kept in the mixture of glycerol and Mueller Hinton Broth (MHB) (1:1) at −20°C, and the activation was achieved using the streak technique on Mueller Hinton agar (MHA) medium.
(§2) The MICs of ATBs and NPs were determined by the broth microdilution method as previously described. NPs and ATBs were, respectively, prepared at 4096 µg/mL and 512 µg/mL and serially diluted twofold with MHB in a 96-well microplate at a volume of 100 µL. Then, the wells were filled with 100 µL of inoculum (1.5 × 10^6 CFU/mL) to give final concentrations ranging from 1024 µg/mL to 0.5 µg/mL and 128 µg/mL to 0.062 µg/mL of NPs and ATBs, respectively. The microplates were incubated for 24 h at 37°C. Wells containing only bacterial inoculum were used as the negative control. After incubation, a volume of 40 µL of INT solution (0.2 mg/mL) was added to each well, and the microplate was incubated at 37°C for 30 min. Viable bacteria cells change the yellow dye of INT to a pink color. The MIC was considered as the lowest concentration of the sample at which there was no change in the coloration of the medium, corresponding to the complete inhibition of microbial growth.
(§3) All tests were performed in triplicate.

[1] = test system: Staphylococcus epidermidis biofilm; assay: Checkerboard combination assay, biofilm eradication; assay type: cell-based; conditions: for MBEC Alone NPs: natural product alone
Description: The effect of the combination of ATBs with NPs on the preformed biofilm was evaluated by determining the FICI, as described above for biofilm formation, with slight modifications. After biofilm formation for 24 h, the plate was gently emptied and washed three times with PBS. Then, 50 µL of ATBs and 50 µL of NPs were introduced to the plate. The final concentration ranges from 0.0625 to 128 µg/mL and from 4 to 512 µg/mL for ATBs and NPs, respectively, and is incubated at 37°C for 24 h. After incubation, the medium was gently removed, and the plate was washed three times with PBS. At the end of the incubation time, the MTT reduction assay was performed, and the MBEC was determined. To assess the effect of the combination, the FICI was calculated and interpreted as described above.

S. epidermidis biofilm = assay: Biofilm inhibition assay (MBIC, MTT); assay type: cell-based, Staphylococcus epidermidis; conditions: Staphylococcus epidermidis, 24 h; geometric mean, S. epidermidis (n = 3)
Description: (§4) The biofilm formation inhibitory activity of NPs and ATBs was carried out according to the method previously described. A total of 100 µL of bacterial inoculum (1.5 × 10^6 CFU/mL) was used, and 100 µL of each sample was added to the microplate to achieve final concentrations ranging from 0.25 µg/mL to 128 µg/mL for ATBs and from 8 µg/mL to 1024 µg/mL for NPs. Then, the microplate was incubated at 37°C for 24 h. After incubation, the plates were gently emptied and washed three times with a phosphate buffer solution at pH 7.2. Then, the MTT solution (0.5 mg/mL) prepared in PBS was introduced into each well, and the microplate was further incubated at 37°C for 24 h. Untreated wells containing bacterial suspension and MHB supplemented with 1% glucose were considered positive controls, and wells containing only MHB+1% glucose without bacteria were used as blanks. After incubation, the MTT solution was aspirated, then 150 µL of DMSO was introduced to dissolve the formazan crystal formed by viable bacteria, and the optical density (OD) was measured at 570 nm using a microplate reader (VERSA-max). The percentage of biofilm inhibition was calculated using the formula below, and the minimal biofilm inhibitory concentration (MBIC) was recorded as the lowest concentration of NPs or ATBs that inhibited 100% of biofilm:(1) % biofilm inhibition=ODcontrol−ODblank−ODtest−ODblank/ODcontrol−ODblank×100.

[2] = test system: planktonic cells of Staphylococcus saprophyticus; assay: Checkerboard combination assay, planktonic cells; assay type: cell-based; conditions: S. saprophyticus, mean; for MIC: Staphylococcus saprophyticus
Description: (§5) The checkerboard assay, as previously described, was used for the determination of the fractional inhibitory concentration index (FICI). Briefly, 50 µL of MHB was distributed into each well of a 96-well microplate. ATBs were serially diluted along the abscissa, and NPs were serially diluted along the ordinate. Then, 100 µL of bacterial inoculum (1.5 × 10^6 CFU/mL) was added to each well and incubated at 37°C for 24 h. The final concentration ranged from 0.125 to 128 µg/mL for ATBs and 4–512 µg/mL for NPs. After incubation, a volume of 40 µL of INT solution (0.2 mg/mL) was added to each well, and the microplate was incubated at 37°C for 30 min. The wells containing bacterial inoculum and MHB were used as a positive control, while wells containing only MHB + 1% glucose were used as a negative control and used as a blank. Viable bacteria cells change the yellow dye of INT to a pink color. The MICs were considered to be the lowest NP concentrations that prevented the color change medium. Subsequently, the FICI was calculated according to the formula FICI = (MIC of the ATBs in combination/MIC of the ATBs alone) + (MIC of a natural substance in combination/MIC of the natural substance alone). FICI values were interpreted as follows: synergy when FICI ≤ 0.5; additive when 0.5 < FICI ≤ 1; indifference when 1 < FICI ≤ 4; and antagonism when FICI > 4.

[3] = test system: planktonic cells of Staphylococcus aureus; assay: Checkerboard combination assay, planktonic cells; assay type: cell-based; conditions: Staphylococcus aureus, S. aureus, mean
Description: as §5

S. saprophyticus biofilm = assay: Biofilm inhibition assay (MBIC, MTT); assay type: cell-based, Staphylococcus saprophyticus; conditions: Staphylococcus saprophyticus, 24 h; geometric mean, S. saprophyticus (n = 3)
Description: as §4

S. aureus biofilm = assay: Biofilm inhibition assay (MBIC, MTT); assay type: cell-based, Staphylococcus aureus; conditions: Staphylococcus aureus, 24 h; geometric mean, S. aureus (n = 3)
Description: as §4

S. saprophyticus = assay: MIC and MBC, broth microdilution; assay type: cell-based, Staphylococcus saprophyticus; conditions: Staphylococcus saprophyticus, geometric mean, S. saprophyticus (n = 3); for MBC: read-out: MBC; for MIC: read-out: MIC
Description: as §1, §2, §3

[4] = S. epidermidis biofilm eradication, antibiotic alone, mean MBEC

| SMILES | MBC (S. epidermidis; antibiotics) [µg/mL] | MIC (S. epidermidis) [µg/mL] | MBEC Alone ATB [1, 4] [µg/mL] | minimal effective concentration (S. epidermidis biofilm) [µg/mL] | MIC ([2]; 24 h, read-out: MIC alone, ATB) [µg/mL] | MIC ([2]; read-out: MIC alone, ATB) [µg/mL] | MIC ([3]; 24 h, read-out: MIC alone, ATB) [µg/mL] | MIC ([3]; read-out: MIC alone, ATB) [µg/mL] | minimal effective concentration (S. saprophyticus biofilm) [µg/mL] | minimal effective concentration (S. aureus biofilm) [µg/mL] | MBC (S. saprophyticus; antibiotics) [µg/mL] | MIC (S. saprophyticus) [µg/mL] | MBC (S. epidermidis; natural products) [µg/mL] | MIC ([2]; 24 h, read-out: MIC alone, NPs) [µg/mL] | MIC ([2]; read-out: MIC alone, NPs) [µg/mL] | MIC ([3]; 24 h, read-out: MIC alone, NPs) [µg/mL] | MIC ([3]; read-out: MIC alone, NPs) [µg/mL] | MBC (S. saprophyticus; natural products) [µg/mL] | further results |
| --- | --- | --- | --- | --- | --- | --- | --- | --- | --- | --- | --- | --- | --- | --- | --- | --- | --- | --- | --- |
| NCC[C@H](O)C(=O)N[C@@H]1C[C@H](N)[C@@H](O[C@H]2O[C@H](CN)[C@@H](O)[C@H](O)[C@H]2O)[C@H](O)[C@H]1O[C@H]1O[C@H](CO)[C@@H](O)[C@H](N)[C@H]1O [Amikacin, amikacin] | > 128 | 1.16 (≈ 1.98 µM) | 21.33 | 3.08 | 22 | 22 | 4.33 | 4.33 | 2.08 | 1.83 | > 128 | 22 (≈ 37.6 µM) |  |  |  |  |  |  |  |
| CC1(C)S[C@@H]2[C@H](NC(=O)[C@H](N)c3ccc(O)cc3)C(=O)N2[C@H]1C(=O)O [Amoxicillin, amoxicillin] | > 128 | 26.8 (≈ 73.4 µM) | 16 | 2.08 | 22 | 22 | 86.7 | 86.7 | 9 | 1.5 | > 128 | 22 (≈ 60.2 µM) |  |  |  |  |  |  |  |
| COc1ccc2cc3[n+](cc2c1OC)CCc1cc2c(cc1-3)OCO2 [Berberine, berberine] |  | 213 |  |  |  |  |  |  | 85.3 | 171 |  | 149 | > 1020 | 213 | 213 | 139 | 139 | > 1020 | MBEC Alone NPs ([1]; S. epidermidis biofilm eradication, mean MBEC, listed as Ber): 170.66 µg/mL and 149.33 µg/mL and 213.33 µg/mL; MIC alone, NPs ([2]; listed as Ber): 298.66 µg/mL |
| Cc1nnc(SCC2=C(C(=O)O)N3C(=O)[C@@H](NC(=O)Cn4cnnn4)[C@H]3SC2)s1 [Cefazolin, cefazolin] | 139 (≈ 305 µM) | 42.7 (≈ 93.9 µM) | 10.66 | 8.66 | 64.7 | 64.7 | 42.7 | 42.7 | 8.53 | 4.66 | > 128 | 64.7 (≈ 142 µM) |  |  |  |  |  |  | MBEC Alone ATB ([1]; S. epidermidis, biofilm eradication, mean): 42.66 µg/mL |
| C=CC1=C(C(=O)O)N2C(=O)[C@@H](NC(=O)/C(=N\OCC(=O)O)c3csc(N)n3)[C@H]2SC1 [Cefixime, cefixime] | > 128 | 107 (≈ 235 µM) | 42.66 | 64 | 192 | 192 | 213 | 213 | 48 | 64 | > 128 | 192 (≈ 423 µM) |  |  |  |  |  |  |  |
| COc1cc(/C=C/C(=O)CC(=O)/C=C/c2ccc(O)c(OC)c2)ccc1O [Curcumin, curcumin] |  | 384 (≈ 1040 µM) |  | 128 |  |  |  |  | 107 | 107 |  | 171 (≈ 463 µM) | > 1020 | 149 | 149 | 235 | 235 | > 1020 | MBEC Alone NPs ([1]; S. epidermidis biofilm eradication, mean MBEC, listed as Cur): 106.66 µg/mL and 128 µg/mL; MIC alone, NPs ([2]; listed as Cur): 213.33 µg/mL |
| O=c1c(O)c(-c2ccc(O)c(O)c2)oc2cc(O)cc(O)c12 [Quercetin, quercetin] |  | 512 (≈ 1690 µM) |  | 512 |  |  |  |  | 427 | 512 |  | 341 (≈ 1130 µM) | > 1020 | 427 | 427 | 427 | 341 | > 1020 | MIC alone, NPs ([2]; listed as Que): 341.33 µg/mL |
